Laboratory results from ChEMBL document CHEMBL2331213, “A flexible approach to 1,4-di-substituted 2-aminoimidazoles that inhibit and disperse biofilms and potentiate the effects of β-lactams against multi-drug resistant bacteria” (Eur J Med Chem, 2013).
pEC50, pIC50: −log10 of the molar value.

Columns and labels:
Staphylococcus aureus [1] = experiment: Antibacterial activity against methicillin-resistant Staphylococcus aureus ATCC BAA-44 assessed as reduction of oxacillin MIC at 25% MIC by broth microdilution method relative to oxacillin-treated control; assay type: functional
Staphylococcus aureus [2] = experiment: Antibacterial activity against methicillin-resistant Staphylococcus aureus ATCC BAA-44 assessed as dispersion of preformed biofilm after 24 hrs by crystal violet reporter assay; assay type: functional, organism-based; details: ATCC BAA-44, 24 h
Acinetobacter baumannii [3] = experiment: Antibacterial activity against multidrug-resistant Acinetobacter baumannii ATCC BAA-1605 assessed as inhibition of biofilm growth after 24 hrs by crystal violet reporter assay; assay type: functional, organism-based; details: for pIC50: Acinetobacter baumannii, ATCC BAA-1605, 24 h, read-out: IC50
Staphylococcus aureus [4] = experiment: Antibacterial activity against methicillin-resistant Staphylococcus aureus ATCC BAA-44 assessed as inhibition of biofilm growth after 24 hrs by crystal violet reporter assay; assay type: functional, organism-based; details: ATCC BAA-44, 24 h
Acinetobacter baumannii [5] = experiment: Antibacterial activity against multidrug-resistant Acinetobacter baumannii ATCC BAA-1605 assessed as growth inhibition by broth microdilution method; assay type: functional
Staphylococcus aureus [6] = experiment: Antibacterial activity against methicillin-resistant Staphylococcus aureus ATCC BAA-44 assessed as growth inhibition by broth microdilution method; assay type: functional

| Structure (SMILES) | fold change (FC) (Staphylococcus aureus [1]) | pEC50 (Staphylococcus aureus [2]) | pIC50 (Acinetobacter baumannii [3]) | pIC50 (Staphylococcus aureus [4]) | MIC (Acinetobacter baumannii [5]) | MIC (Staphylococcus aureus [6]) | IC50 (Acinetobacter baumannii [3]) |
| --- | --- | --- | --- | --- | --- | --- | --- |
| CCCCCc1ccc(C(=O)NCCn2cc(CCCCCc3c[nH]c(N)n3)nn2)cc1.Cl | 4 |  |  |  |  |  |  |
| CCCCCc1ccc(C(=O)NCCn2cc(CCCCCc3cn(CCc4ccccc4)c(N)n3)nn2)cc1.Cl | 0 | 4.48 | 4.41 | 5.00 | 100 µM | 25 µM |  |
| CCCCCc1ccc(C(=O)NCCn2cc(CCCCCc3cn(Cc4ccccc4)c(N)n3)nn2)cc1.Cl | 0 | 4.40 | 4.47 | 5.15 | 100 µM | 12.5 µM |  |
| CCCCCc1ccc(C(=O)NCCn2cc(CCCCCc3cn(-c4ccccc4)c(N)n3)nn2)cc1.Cl | 0 |  | 4.30 | 4.60 | > 200 µM | 25 µM |  |
| CCCCCCn1cc(CCCCCc2cn(CCNC(=O)c3ccc(CCCCC)cc3)nn2)nc1N.Cl | 0 | 4.39 | 4.58 | 5.21 | 100 µM | 12.5 µM |  |
| CCCCCc1ccc(C(=O)NCCn2cc(CCCCCc3cn(CCCCC)c(N)n3)nn2)cc1.Cl | 0 | 4.35 | 4.50 | 5.38 | 100 µM | 12.5 µM |  |
| CCCCCc1ccc(C(=O)NCCn2cc(CCCCCc3cn(CCCC)c(N)n3)nn2)cc1.Cl | 0 |  | 4.27 | 4.97 | 100 µM | 25 µM |  |
| C=CCn1cc(CCCCCc2cn(CCNC(=O)c3ccc(CCCCC)cc3)nn2)nc1N.Cl | 2 |  |  | 4.88 | 200 µM | 50 µM | ND(toxic) |
| CCCCCc1ccc(C(=O)NCCn2cc(CCCCCc3cn(CC(C)C)c(N)n3)nn2)cc1.Cl | 4 |  | 4.01 | 4.62 | 200 µM | 50 µM |  |
| CCCCCc1ccc(C(=O)NCCn2cc(CCCCCc3cn(C(C)C)c(N)n3)nn2)cc1.Cl | 0 |  |  | < 4.00 | > 200 µM | 200 µM | ND(toxic) |
| CCCCCc1ccc(C(=O)NCCn2cc(CCCCCc3cn(C4CCCCC4)c(N)n3)nn2)cc1.Cl | 2 |  |  | 4.73 | 200 µM | 25 µM | ND(toxic) |
| CCCCCc1ccc(C(=O)NCCn2cc(CCCCCc3cn(C4CCCC4)c(N)n3)nn2)cc1.Cl | 2 | 4.46 | 4.47 | 5.05 | 100 µM | 25 µM |  |
| CCCCCc1ccc(C(=O)NCCn2cc(CCCCCc3cn(C4CC4)c(N)n3)nn2)cc1.Cl | 2 |  |  | < 4.00 | > 200 µM | 100 µM | ND(toxic) |
